The source of these data is publication PMC11088877, “AMP-activated protein kinase can be allosterically activated by ADP but AMP remains the key activating ligand” (Biochemical Journal, 2024).

Values joined by “and” are separate entries in the source; they are usually repeats but may differ in a detail not shown here. Identical values can stand only once.

The target of experiment [1] is T1, human α2β2γ1 complex, CBS1 mutant (L129D/V130D) (Homo sapiens, UniProt P54619+P54646, L129D/V130D).
T1 construct: made in house; host or cells: Escherichia coli
Description: Allosteric activation of CBS1 mutant human α2β2γ1 AMPK complex. In kind it is biochemical. The text has this:
To study allosteric activation with a more well-defined AMPK complex, and to study the effects of mutations in individual adenine nucleotide-binding sites on the γ subunit, we expressed a human α2β2γ1 complex in Escherichia coli and purified it utilizing the polyhistidine tag at the N-terminus of the α2 subunit. […] However, it had not been co-expressed with an N-myristoyl transferase so would not have been N-myristoylated on the β2 subunit. The complex was expressed not only with the WT γ1 sequence but also with mutations affecting hydrophobic residues previously shown to be involved in binding of the adenine moieties of nucleotides at CBS1 (L129D/V130D), CBS3 (V276G/L277G) and CBS4 (I312G). All four complexes co-purified as heterotrimeric 1:1:1 complexes as expected, and were phosphorylated and activated equally well either by CaMKK2 or the LKB1: STRADα:MO25α complex (Supplementary Figure S2). For the studies described below we phosphorylated Thr172 using a GST-tagged CaMKK2 and repurified AMPK using size exclusion chromatography and a glutathione-Sepharose column, which remove CaMKK2.
Figure 4. Allosteric activation of WT and mutant human α2β2γ1 AMPK complex by AMP and ADP at three different concentrations of ATP. The α2β2γ1 complex was phosphorylated on Thr172 prior to assay using CaMKK2. The γ1 subunit was either (A/E): WT; (B/F): a CBS1 mutant (L129D/V130D); (C/G): a CBS3 mutant (V276G/L277G); (D/H): a CBS4 mutant (I312G). Results are means of duplicate assays ± SD; error bars are not shown if they were smaller than the symbols used for mean values. Assays and curve fitting were as in Figure 1 at either 0.2 mM (left panels) or 5 mM (right panels) ATP. Best-fit values for all parameters used to generate the curves are listed in Supplementary Table S1.
Sources of antibodies were as described: pThr172 (AMPK-α: Cell Signaling Technologies, Danvers, MA, U.S.A., Cat# 2535), AMPK-α2 [22]. Rat liver AMPK was purified as described previously. Plasmid encoding human (His)6-tagged AMPK (α2β2γ1, bacterially expressed) generated as in [23], was a gift from AstraZeneca, Cambridge, U.K. The L129D/V130D (CBS1), V276G/L277G (CBS3) and I312G (CBS4) mutations in the α2β2γ1 complex were generated using the Quikchange II site-directed mutagenesis kit (Agilent Technologies) and confirmed by DNA sequencing. Human GST-tagged α2 kinase domain (1–310), LKB1:STRAD-α:MO25-α complexes, GST-tagged CaMKK2 [26], and PPM1A (PP2Cα) were produced as described. Bacterially expressed heterotrimers were activated by phosphorylation of Thr172 by GST-tagged CaMKK2 in the presence of ATP, and CaMKK2 was subsequently removed by passage through glutathione-Sepharose. Human GST-tagged α2 kinase domain was activated in a similar manner except that human (His)6-tagged LKB1:STRAD-α:MO25-α complex was used and removed after activation via passage through a His-Trap column. Recombinant human 5′-nucleotidase, CD73, Cat # 5795-EN-01, was from R&D systems (Minneapolis, MN, U.S.A.).
AMPK assays measured the transfer of radioactivity from [γ-^33P]ATP to a peptide substrate, which was separated from unreacted ATP by binding to P81 paper. This assay was described previously except that we used [γ-^33P] rather than [γ-^32P]ATP. In some assays (specified in Figure legends) the concentration of ATP was increased from 0.2 to 1 or 5 mM ATP, with MgCl2 concentrations maintained at a constant 4.8 mM excess above the concentration of ATP [19]. Where allosteric activation by AMP or ADP was being studied, we used the SAMS peptide as substrate. For all other assays the AMARA peptide was used.

The target in experiment [2] is T2, phosphorylated human α2β2γ1 complex (WT) (Homo sapiens, UniProt P54619+P54646).
T2 construct: made in house; host or cells: Escherichia coli
As to the kind of experiment: AMPK inactivation and Thr172 dephosphorylation by PP2Cα (PPM1A), WT. In kind it is biochemical. The note with it: 300 µM nucleotide, absence of ATP. On the procedure: The relative roles of the three CBS sites in the other two mechanisms of activation of AMPK by AMP or ADP, i.e. promotion of Thr172 phosphorylation by LKB1, and protection against Thr172 dephosphorylation by protein phosphatases, have not been examined previously. As expected, incubation of the α2β2γ1 AMPK complex with a fixed, limiting amount of purified LKB1:STRADα:MO25α complex in the presence of 200 µM Mg.ATP^2− caused a large degree of activation (Figure 5A) and phosphorylation (Figure 5B) of AMPK (unphosphorylated α2β2γ1 complex), which were stimulated more than 2-fold by 300 µM AMP and 1.6-fold by 300 µM ADP.
Figure 6. Effects of AMP or ADP on AMPK inactivation and Thr172 dephosphorylation by PP2Cα (PPM1A). Human α2β2γ1 complexes (WT, or with L129D/V130D, V276G/L277G or I312G mutations affecting CBS1, CBS3 or CBS4 respectively), all phosphorylated on Thr172, were incubated with a fixed concentration of PP2Cα (PPM1A) in the presence or absence of AMP or ADP (both 300 µM) as described in the Materials and methods section. After the incubation, aliquots were withdrawn for (A) AMPK assay or (B) Western blots. […] For (B), due to a limit on the number of lanes that could be run on one gel, single replicates from the triplicate assays were analysed. […]

T1 sequence (P54619 whole entry L129D/V130D): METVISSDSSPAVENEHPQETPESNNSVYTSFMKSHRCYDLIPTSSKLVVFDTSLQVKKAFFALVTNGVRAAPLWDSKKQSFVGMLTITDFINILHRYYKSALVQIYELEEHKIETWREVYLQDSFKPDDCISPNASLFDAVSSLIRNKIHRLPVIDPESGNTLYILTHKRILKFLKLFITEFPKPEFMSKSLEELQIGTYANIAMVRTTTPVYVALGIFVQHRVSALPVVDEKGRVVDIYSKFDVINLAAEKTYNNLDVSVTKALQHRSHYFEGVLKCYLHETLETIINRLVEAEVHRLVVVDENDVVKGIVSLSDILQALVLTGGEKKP
T1 sequence (P54646 whole entry): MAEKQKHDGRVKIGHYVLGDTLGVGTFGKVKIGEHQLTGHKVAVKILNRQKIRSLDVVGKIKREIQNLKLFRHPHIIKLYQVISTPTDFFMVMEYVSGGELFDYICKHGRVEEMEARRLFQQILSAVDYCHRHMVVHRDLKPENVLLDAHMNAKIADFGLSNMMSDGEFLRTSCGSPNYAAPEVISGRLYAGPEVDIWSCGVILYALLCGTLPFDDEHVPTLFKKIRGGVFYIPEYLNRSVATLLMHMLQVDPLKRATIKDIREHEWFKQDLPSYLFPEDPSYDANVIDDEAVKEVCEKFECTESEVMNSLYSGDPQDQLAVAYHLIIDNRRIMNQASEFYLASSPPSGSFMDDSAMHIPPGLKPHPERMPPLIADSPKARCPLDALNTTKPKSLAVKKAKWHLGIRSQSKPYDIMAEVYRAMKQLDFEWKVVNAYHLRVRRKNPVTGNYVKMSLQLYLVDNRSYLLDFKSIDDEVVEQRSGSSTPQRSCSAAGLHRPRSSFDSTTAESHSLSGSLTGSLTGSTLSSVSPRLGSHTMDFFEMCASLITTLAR
T1 sequence (O43741 whole entry partner): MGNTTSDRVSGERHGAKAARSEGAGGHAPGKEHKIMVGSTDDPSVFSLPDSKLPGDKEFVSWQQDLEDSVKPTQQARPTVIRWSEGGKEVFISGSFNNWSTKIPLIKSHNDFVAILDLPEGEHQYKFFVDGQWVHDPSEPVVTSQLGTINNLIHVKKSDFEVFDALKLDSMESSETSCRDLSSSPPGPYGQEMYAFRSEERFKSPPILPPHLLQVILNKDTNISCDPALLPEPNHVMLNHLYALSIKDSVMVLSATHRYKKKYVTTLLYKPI
T2 sequence (P54619 whole entry): as the sequence (P54619 whole entry L129D/V130D) above, with D129L, D130V counted along it
T2 sequence (P54646 whole entry): as the sequence (P54646 whole entry) above
T2 sequence (O43741 whole entry partner): as the sequence (O43741 whole entry partner) above

For `Nc1ncnc2c1ncn2[C@@H]1O[C@H](COP(=O)(O)OP(=O)(O)O)[C@@H](O)[C@H]1O` [ADP], the “Activation (maximal)” value is “did not cause allosteric activation and none” in experiment [1] (0.2 mM ATP); “abolished allosteric activation and essentially abolished allosteric activation and none” in experiment [1] (5.0 mM ATP). In addition, in experiment [1] (0.2 mM ATP), the half-inhibitory concentration (IC50) (as a rule, the concentration needed to halve the response being measured) was determined as 1 mM. Further, the “inactivation and dephosphorylation of AMPK by PPM1A in the presence of nucleotide” value in experiment [2] is reported as “greatly reduced”.

With `Nc1ncnc2c1ncn2[C@@H]1O[C@H](COP(=O)(O)O)[C@@H](O)[C@H]1O` [AMP], in experiment [1] (0.2 mM ATP), the “Activation (maximal)” value is given as 2.4 (2.3-2.4) fold, the concentration for a half-maximal effect (EC50) (usually the concentration needed to bring the measured effect to its halfway point) came to 1.6 µM, it took 3.4 mM to reach half-maximal inhibition (IC50) and the IC50/EC50 is listed as 2100. Moreover, in experiment [1] (5.0 mM ATP), the “Activation (maximal)” value is 2.4 fold and 2.3 fold; the EC50 was 19 µM; the IC50 turned out to be 52 mM; the IC50/EC50 stood at 2700. Also, the “inactivation and dephosphorylation of AMPK by PPM1A in the presence of nucleotide” value in experiment [2] is given as “greatly reduced”.
